Data taken from patent US20100075907A1, “NEUROMEDIN U RECEPTOR AGONISTS AND USES THEREOF” (priority 2006, published 2010).
pEC50, pIC50: −log10 of the molar value. Starred links: 1 amine or outer side, 2 acyl side, 3 side chain; linkers in the order of their positions; H or OH if unused. Non-standard residues stand in square brackets, D forms with d. Residues, ends and D or L forms follow the SMILES beside them. *: point of attachment. X1 = CC(C)CCC[C@@H](C)[C@H]1CC[C@H]2[C@@H]3CC=C4C[C@@H](OC(=O)C*)CC[C@]4(C)[C@H]3CC[C@]12C; X2 = CCN1C(=O)CC(SC[C@H](NC(C)=O)C(=O)NCCCOCCOCCOCCCN*)C1=O; Succinimide(1-Et,3-yl) = CCN1C(=O)CC(*)C1=O; Suc = O=C(CCC(=O)[*:2])[*:1]

What was measured:
Type in all cases: cell-based
rat NMUR1-ATG = target: T1, rat NMUR1-ATG (Rattus norvegicus, UniProt Q9JJI5); experiment: FLIPR calcium mobilization assay, rat NMUR1-ATG; set-up: expressed in transfected cells; host or cells: FLP-In CHO or HEK-293 FLP-In cells (pcDNA5); details: for pIC50: functional data; for pEC50: FLIPR
T1 sequence (Q9JJI5 1-425): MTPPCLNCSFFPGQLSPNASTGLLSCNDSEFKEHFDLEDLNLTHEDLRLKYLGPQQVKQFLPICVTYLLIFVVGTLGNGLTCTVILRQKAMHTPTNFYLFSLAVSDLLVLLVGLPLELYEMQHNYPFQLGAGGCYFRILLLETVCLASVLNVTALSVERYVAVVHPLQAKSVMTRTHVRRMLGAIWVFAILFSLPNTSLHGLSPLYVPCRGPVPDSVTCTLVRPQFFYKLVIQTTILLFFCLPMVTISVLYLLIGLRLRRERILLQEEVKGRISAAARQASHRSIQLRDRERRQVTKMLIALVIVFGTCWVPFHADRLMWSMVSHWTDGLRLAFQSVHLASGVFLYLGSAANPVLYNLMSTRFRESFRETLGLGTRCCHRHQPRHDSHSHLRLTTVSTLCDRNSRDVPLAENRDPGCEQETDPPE
Source text: (§1) Human, mouse or rat cDNAs encoding NMUR1 or NMUR2 (as described in Howard et al. Nature 406: 70-74 (2000) were subcloned in pcDNA5 (Invitrogen) and transfected into FLP-In CHO cells and HEK-293 FLP-In cells purchased from Invitrogen (Carlsbad, Calif.) using lipofectamine (Invitrogen). The Flp-In system allows integration and expression of a particular gene of interest at a specific genomic location utilizing the Flp recombinase from yeast. The transfected cells were selected by growth in medium containing 200 μg/mL hygromycin (Invitrogen). Populations were frozen at early passage numbers, and these stocks were used for further studies. Stable clones that expressed the mRNAs were identified functionally by FLIPR as well as by RT-PCR. […] Two different rodent NMUR1 cell lines were thus generated: one with the codon as predicted from the genomic databases and another cell line with an engineered methionine (ATG) as the start codon. Additionally, stable cell lines expressing the human receptors were generated in HEK-293/aeq17 cells which stably express the aequorin gene under the CMV promoter. The human NMUR2 cDNA was cloned into pcDNA3.1 and human NMUR1 was subcloned into pIRES-puro (Clontech, Mountain View, Calif.), after transfection cells were selected in media containing G418 and either hygromycin (NMUR2) or puromycin (NMUR1).
(§2) The NMU receptors signal primarily through Gαq/11 proteins; therefore calcium mobilization assays can be utilized for functional activity.
(§3) Stable cell lines expressing human and or rodent NMUR1 or human NMUR2 receptors were plated at a density of 12,000 cells per well overnight on poly-lysine coated 384-well black-walled plates. The following day, the media was removed from the plates and the cells were subsequently loaded with Fluo-3 (Molecular Probes), a calcium sensitive dye, diluted in FLIPR buffer (1× Hank's buffered saline containing 20 mM HEPES, 0.1% BSA, 2.5 mM probenecid (Sigma) and 1.6 mM TR40). All reagents are from Invitrogen unless otherwise noted. Peptide stocks were resuspended in DMSO at a stock concentration of 2 mM and diluted in FLIPR buffer on the day of the experiment to a 4 μM working stock solution.
(§4) After a 90 minute incubation at room-temperature, cell plates were loaded onto a FLIPR (Molecular Devices) to monitor cellular fluorescence (excitation=488 nm; emission=540 nm) before and after compound/peptide addition. Eight to twelve point dose responses were tested on NMUR-expressing cell lines using FLIPR with 1 μM peptide as the highest dose. The response after peptide addition was taken as the maximum fluorescence units minus the fluorescence immediately prior to stimulation for each well. EC50 values were calculated using GraphPad Prism (San Diego, Calif.) software.
(§5) In vitro responses of Neuromedin U receptor agonists (NMU1 to NMU25) in the FLIPR assay for human (Table 3), mouse (Table 4) and rat (Table 5) NMUR1 and NMUR2. EC50s are reported in nM values. Percent activity refers to the maximum response at 1 μM compared to the hNMU-25 response at the same concentration. NT=not tested.

mouse NMUR2 = mouse NMUR2 (Mus musculus, UniProt Q8BZ39); experiment: FLIPR calcium mobilization assay, mouse NMUR2; set-up: expressed in transfected cells; host or cells: FLP-In CHO or HEK-293 FLP-In cells (pcDNA5); details: for pIC50: functional data, mouse R2
Source text: as §1, §2, §3, §4, §5

hNMUR1 = target: T2, hNMUR1 (Homo sapiens, UniProt Q9HB89); experiment: FLIPR calcium mobilization assay, human NMUR1; set-up: expressed in transfected cells; host or cells: FLP-In CHO or HEK-293 FLP-In cells (pcDNA5); HEK-293/aeq17 lines (pIRES-puro) were also made
T2 sequence (Q9HB89 1-426): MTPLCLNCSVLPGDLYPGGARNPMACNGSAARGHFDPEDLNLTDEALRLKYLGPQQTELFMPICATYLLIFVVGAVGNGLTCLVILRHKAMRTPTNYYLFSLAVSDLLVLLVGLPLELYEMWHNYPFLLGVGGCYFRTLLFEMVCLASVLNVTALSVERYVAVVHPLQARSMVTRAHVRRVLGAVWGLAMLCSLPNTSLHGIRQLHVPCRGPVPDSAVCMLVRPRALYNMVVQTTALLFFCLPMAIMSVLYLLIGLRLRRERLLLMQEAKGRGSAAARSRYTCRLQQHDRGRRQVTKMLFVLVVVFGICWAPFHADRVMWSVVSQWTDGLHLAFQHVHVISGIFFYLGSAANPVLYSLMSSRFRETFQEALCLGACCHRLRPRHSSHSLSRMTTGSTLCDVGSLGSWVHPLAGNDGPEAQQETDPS
Source text: as §1, §2, §3, §4, §5

[1] = functional, rat R1-ATG, relative to native hNMU responses
[2] = functional, mouse R2, relative to native hNMU responses
[3] = functional, human R1, relative to native hNMU responses
[4] = maximum response at 1 μM compared to hNMU-25, rat NMUR1-ATG
[5] = maximum response at 1 μM compared to hNMU-25, mouse NMUR2
[6] = maximum response at 1 μM compared to hNMU-25 response at same concentration, human NMUR1

Sequence of mouse NMUR2 (Q8BZ39 whole entry): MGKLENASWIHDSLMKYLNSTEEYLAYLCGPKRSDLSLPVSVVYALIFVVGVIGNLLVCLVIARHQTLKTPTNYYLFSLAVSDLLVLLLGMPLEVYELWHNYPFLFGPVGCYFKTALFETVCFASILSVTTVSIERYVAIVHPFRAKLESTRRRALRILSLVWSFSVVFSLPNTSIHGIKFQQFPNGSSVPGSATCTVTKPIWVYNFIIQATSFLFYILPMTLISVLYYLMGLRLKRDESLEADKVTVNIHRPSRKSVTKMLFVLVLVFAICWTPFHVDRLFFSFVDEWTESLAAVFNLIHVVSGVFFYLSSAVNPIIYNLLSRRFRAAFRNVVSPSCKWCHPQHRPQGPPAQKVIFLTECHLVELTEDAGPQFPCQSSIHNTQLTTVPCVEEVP

Row | Molecule | pEC50 (rat NMUR1-ATG; rat NMUR1-ATG) | % Activity (rat NMUR1-ATG; [4]) | % Activity (mouse NMUR2; [5]) | % Activity (hNMUR1; [6]) | pEC50 (hNMUR1; FLIPR, human NMUR1) | pIC50 (rat NMUR1-ATG; rat R1-ATG) | % Activity (rat NMUR1-ATG; [1]) | pIC50 (mouse NMUR2) | % Activity (mouse NMUR2; [2]) | % Activity (hNMUR1; [3]) | pEC50 (mouse NMUR2; FLIPR, mouse NMUR2)
1 | CC(C)C[C@@H](NC(=O)[C@H](Cc1ccccc1)NC(=O)[C@H](Cc1ccc(O)cc1)NC(=O)CNC(=O)[C@H](CCCNC(=N)N)NC(=O)[C@H](CO)NC(=O)[C@H](CCC(N)=O)NC(=O)[C@H](CO)NC(=O)[C@H](C)NC(=O)[C@H](Cc1ccccc1)NC(=O)[C@@H]1CCCN1C(=O)[C@H](CO)NC(=O)[C@H](CCC(N)=O)NC(=O)[C@H](Cc1ccccc1)NC(=O)[C@H](CCC(=O)O)NC(=O)[C@H](CCC(=O)O)NC(=O)[C@H](CC(=O)O)NC(=O)[C@@H](NC(=O)[C@H](CCCNC(=N)N)NC(=O)[C@@H](N)Cc1ccccc1)C(C)C)C(=O)N[C@@H](Cc1c[nH]c2ccccc12)C(=O)N[C@@H](CCCNC(=N)N)C(=O)N1CCC[C@H]1C(=O)N[C@@H](CCCNC(=N)N)C(=O)N[C@@H](CC(N)=O)C(N)=O [Agonist H] (H-FRVDEEFQSPFASQSRGYF[dL]WRPRN-NH2; N-terminus assumed) | – | – | – | – | – | 7.51 | 95% | < 6.00 | 40% | 90% | –
2 | CC(=O)N[C@@H](CSCC(=O)O[C@H]1CC[C@@]2(C)C(=CC[C@H]3[C@@H]4CC[C@H]([C@H](C)CCCC(C)C)[C@@]4(C)CC[C@@H]32)C1)C(=O)NCC(=O)N[C@@H](Cc1ccc(O)cc1)C(=O)N[C@@H](Cc1ccccc1)C(=O)N[C@@H](CC(C)C)C(=O)N[C@@H](Cc1ccccc1)C(=O)N[C@@H](CCCNC(=N)N)C(=O)N1CCC[C@H]1C(=O)N[C@@H](CCCNC(=N)N)C(=O)N[C@@H](CC(N)=O)C(N)=O [NMU11] (Ac-C(X1)GYFLFRPRN-NH2) | – | 50.9% | 70.5% | 20.6% | – | – | – | – | – | – | –
3 | CCN1C(=O)CC(SC[C@H](NC(C)=O)C(=O)N[C@@H](Cc2ccccc2)C(=O)N[C@@H](CCCNC(=N)N)C(=O)N[C@H](C(=O)N[C@@H](CC(=O)O)C(=O)N[C@@H](CCC(=O)O)C(=O)N[C@@H](CCC(=O)O)C(=O)N[C@@H](Cc2ccccc2)C(=O)N[C@@H](CCC(N)=O)C(=O)N[C@@H](CO)C(=O)N2CCC[C@H]2C(=O)N[C@@H](Cc2ccccc2)C(=O)N[C@@H](C)C(=O)N[C@@H](CO)C(=O)N[C@@H](CCC(N)=O)C(=O)N[C@@H](CO)C(=O)N[C@@H](CCCNC(=N)N)C(=O)NCC(=O)N[C@@H](Cc2ccc(O)cc2)C(=O)N[C@@H](Cc2ccccc2)C(=O)N[C@H](C)C(=O)N[C@@H](Cc2c[nH]c3ccccc23)C(=O)N[C@@H](CCCNC(=N)N)C(=O)N2CCC[C@H]2C(=O)N[C@@H](CCCNC(=N)N)C(=O)N[C@@H](CC(N)=O)C(N)=O)C(C)C)C1=O (some centres unmarked) [NMU13] (Ac-C(Succinimide(1-Et,3-yl))FRVDEEFQSPFASQSRGYF[dA]WRPRN-NH2) | – | 100% | 0.0% | 100% | – | – | 92% | < 6.00 | 27% | 91% | < 6.00
4 | H-FRVDEEFQSPFASQSRGYFLFRPRN-NH2 [hNMU-25, reference compound] | – | – | – | – | – | 8.89 | – | 9.70 | – | – | –

Further lines, with some results ahead:

Row | pEC50 (rat NMUR1-ATG; rat NMUR1-ATG) | % Activity (rat NMUR1-ATG; [4]) | % Activity (mouse NMUR2; [5]) | % Activity (hNMUR1; [6]) | pEC50 (hNMUR1; FLIPR, human NMUR1) | Molecule | pIC50 (rat NMUR1-ATG; rat R1-ATG) | % Activity (rat NMUR1-ATG; [1]) | pIC50 (mouse NMUR2) | % Activity (mouse NMUR2; [2]) | % Activity (hNMUR1; [3]) | pEC50 (mouse NMUR2; FLIPR, mouse NMUR2)
5 | 9.00 | 100% | 100% | 96.7% | – | CCN1C(=O)CC(SC[C@H](NC(C)=O)C(=O)NCC(=O)N[C@@H](Cc2ccc(O)cc2)C(=O)N[C@@H](Cc2ccccc2)C(=O)N[C@@H](CC(C)C)C(=O)N[C@@H](Cc2ccccc2)C(=O)N[C@@H](CCCNC(=N)N)C(=O)N2CCC[C@H]2C(=O)N[C@@H](CCCNC(=N)N)C(=O)N[C@@H](CC(N)=O)C(N)=O)C1=O (some centres unmarked) [NMU6] (Ac-C(Succinimide(1-Et,3-yl))GYFLFRPRN-NH2) | – | – | – | – | – | –
6 | – | 97.2% | 100% | 99.1% | – | CCN1C(=O)CC(SC[C@H](NC(C)=O)C(=O)N[C@@H](Cc2ccccc2)C(=O)N[C@@H](CCCNC(=N)N)C(=O)N[C@H](C(=O)N[C@@H](CC(=O)O)C(=O)N[C@@H](CCC(=O)O)C(=O)N[C@@H](CCC(=O)O)C(=O)N[C@@H](Cc2ccccc2)C(=O)N[C@@H](CCC(N)=O)C(=O)N[C@@H](CO)C(=O)N2CCC[C@H]2C(=O)N[C@@H](Cc2ccccc2)C(=O)N[C@@H](C)C(=O)N[C@@H](CO)C(=O)N[C@@H](CCC(N)=O)C(=O)N[C@@H](CO)C(=O)N[C@@H](CCCNC(=N)N)C(=O)NCC(=O)N[C@@H](Cc2ccc(O)cc2)C(=O)N[C@@H](Cc2ccccc2)C(=O)N[C@@H](CC(C)C)C(=O)N[C@@H](Cc2ccccc2)C(=O)N[C@@H](CCCNC(=N)N)C(=O)N2CCC[C@H]2C(=O)N[C@@H](CCCNC(=N)N)C(=O)N[C@@H](CC(N)=O)C(N)=O)C(C)C)C1=O (some centres unmarked) [NMU8] (Ac-C(Succinimide(1-Et,3-yl))FRVDEEFQSPFASQSRGYFLFRPRN-NH2) | – | – | – | – | – | –
7 | – | 100% | 100% | 91.5% | – | CCN1C(=O)CC(SC[C@H](NC(C)=O)C(=O)NCCCOCCOCCOCCCNC(=O)CCC(=O)N[C@@H](Cc2ccccc2)C(=O)N[C@@H](CC(C)C)C(=O)N[C@@H](Cc2ccccc2)C(=O)N[C@@H](CCCNC(=N)N)C(=O)N2CCC[C@H]2C(=O)N[C@@H](CCCNC(=N)N)C(=O)N[C@@H](CC(N)=O)C(N)=O)C1=O (some centres unmarked) [NMU15, Ac-C1-Ttds-FLFRPRN-CONH2] ({X2-Suc}-FLFRPRN-NH2) | – | – | – | – | – | –
8 | 7.71 | 99.9% | – | 93.2% | 7.84 | Ac-C4FRVDEEFQSPFASQSRGYFLFRPRN-CONH2 ({Ac-C(PEG 20 kDa)}-FRVDEEFQSPFASQSRGYFLFRPRN-NH2) [NMU21, C4 = Cys(PEG)20 kDa] | – | – | – | – | – | –
